The text below walks through data of publication PMC1968247 (British Journal of Cancer, 1993).

Where two headings read alike, the source gives them in different places.

One data set has as its system MAC 13 tumours. In words: Anti-tumour activity against MAC 13 (tumour weight). Particulars: 60 mg kg-1 ip. Type of data set: in vivo, NMRI mice. Here is the method: (§1) Br. J. Cancer (1993), 67, 441 446 t? […] Bibby Clinical Oncology Unit, University of Bradford, West Yorkshire, BD7 JDP, UK. […] In vivo anti-tumour activity was examined against three transplantable adenocarcinomas of the mouse colon and in vivo bone marrow toxicity was assessed using a spleen colony forming unit assay. The pharmacokinetic behaviour of the drug in vivo and drug stability in vitro was analysed by gas chromatography with electron capture detection. […] Clinical responses to cytotoxic agents have been largely restricted to the haematological malignancies while the majority of human solid tumours have remained refractory to chemotherapy (Marsoni et al., 1987). […] However, their clinical usefulness has been limited by non-selective host toxicity, particularly myelosuppres- sion. The chloroethylnitrosoureas decompose spontaneously in aqueous solution to generate reactive intermediates that are capable of alkylating and carbamoylating nucleophilic targets (Cheng et al., 1972). Alkylation reactions consist of chloroethylations and hydroxyethylations of DNA (Tong et al., 1982). Chloroethylation of 06-guanine with subsequent cross-link formation is considered to be the most important cytotoxic reaction (Lown et al., 1978) while hydroxyethyla- tion reactions are thought to be responsible for their mutagenic and carcinogenic effects (Pelfrene et al., 1976; Swenson et al., 1979). […] In the search for other types of compound that would chloroethylate DNA, a series of 2-haloethylsulphonates was synthesised (Shealy et al., 1983). […] Recently, the NCI has introduced a new disease-orientated screening programme based on the assessment of the in vitro cytotoxicity of a panel of cell lines representing the common clinical forms of human cancers using a colorimetric assay (Boyd, 1989). […] One reason for this discrepancy is that the in vitro tests ignore the potential role played by the pharmacokinetic behaviour and bioavailability of a drug in determining tumour responses in vivo. […] It has been used extensively as part of the pre-clinical evaluation of new anti-cancer agents within the Screening and Pharmacology Group of the EORTC (Bibby et al., 1988b). The feasibility of performing minimal toxicity studies in conjunction with anti-tumour studies has been described (Bibby et al., 1988b). […] Correspondence: A.M. Matthew. Received 6 December 1991; and in revised form 13 October 1992. Br. J. Cancer (1993), 67, 441-446 '?" Macmillan Press Ltd., 1993 442 A.M. MATIHEW et al. ethylating agents with improved therapeutic indices. The assessment of stem cell survival has been recommended to study irreversible cytotoxic bone marrow injury (Schofield, 1986) and this can be performed readily in mice using a spleen colony forming unit assay. […] In vitro activity was assessed against a panel of established murine and human tumour cell lines while in vivo anti-tumour responses were evaluated against an ascitic tumour, MAC 15A, and two solid subcutaneous (sc) tumours, MAC 13 and MAC 26. MAC 13 is relatively nitrosourea-sensitive due to a low level of the repair enzyme 06-alkylguanine-DNA alkyltransferase while MAC 26 is relatively nitrosourea-resistant due to a high repair enzyme level (Lunn et al., 1989). In vivo bone marrow toxicity and pharmacokinetic studies and in vitro drug stability studies were performed in conjunction with the anti-tumour studies. […] Chlorozotocin was dissolved in 10% dimethylsulphoxide (DMSO)/arachis oil. Drug solutions were prepared at an appropriate concentration for the desired in vivo dose to be administered in 0.1 ml per 10 g body weight by intra- peritoneal (ip) or intravenous (iv) injection and for the desired final concentration in vitro to be achieved upon a 1 in 10 dilution. […] Chemosensitivity testing In vitro chemosensitivity was assessed using a modified micro-tetrazolium (MTT) assay (Twenty- man & Luscombe, 1987).

The nature of data set [1]: Maximum tolerated dose, full dose range to the point of toxicity. Conditions: NMRI, mouse, in vivo, ip. The protocol:
Br. J. Cancer (1993), 67, 441 446 t? […] Bibby Clinical Oncology Unit, University of Bradford, West Yorkshire, BD7 JDP, UK. […] In vivo anti-tumour activity was examined against three transplantable adenocarcinomas of the mouse colon and in vivo bone marrow toxicity was assessed using a spleen colony forming unit assay. The pharmacokinetic behaviour of the drug in vivo and drug stability in vitro was analysed by gas chromatography with electron capture detection. […] Clinical responses to cytotoxic agents have been largely restricted to the haematological malignancies while the majority of human solid tumours have remained refractory to chemotherapy (Marsoni et al., 1987). […] However, their clinical usefulness has been limited by non-selective host toxicity, particularly myelosuppres- sion. The chloroethylnitrosoureas decompose spontaneously in aqueous solution to generate reactive intermediates that are capable of alkylating and carbamoylating nucleophilic targets (Cheng et al., 1972). Alkylation reactions consist of chloroethylations and hydroxyethylations of DNA (Tong et al., 1982). Chloroethylation of 06-guanine with subsequent cross-link formation is considered to be the most important cytotoxic reaction (Lown et al., 1978) while hydroxyethyla- tion reactions are thought to be responsible for their mutagenic and carcinogenic effects (Pelfrene et al., 1976; Swenson et al., 1979). […] The assessment of stem cell survival has been recommended to study irreversible cytotoxic bone marrow injury (Schofield, 1986) and this can be performed readily in mice using a spleen colony forming unit assay. […] In vitro activity was assessed against a panel of established murine and human tumour cell lines while in vivo anti-tumour responses were evaluated against an ascitic tumour, MAC 15A, and two solid subcutaneous (sc) tumours, MAC 13 and MAC 26. […] Chemosensitivity testing In vitro chemosensitivity was assessed using a modified micro-tetrazolium (MTT) assay (Twenty- man & Luscombe, 1987).

For another data set, the system named is MAC 26 tumours. Particulars: for Tumour growth delay: MAC 26; for Survivors: MAC 26 bearers. The protocol:
as §1

The subject of another data set is bone marrow. Particulars: 24 h. Here is the method:
as §1

A further data set concerns MAC 15A ascites tumour. Kind of data set: Anti-tumour activity against MAC 15A (median survival time). Type of data set: in vivo, NMRI mice. Conditions: 60 mg kg-1 ip. The protocol: as §1

For the molecule `O=NN(CCCl)C(=O)N[C@H]1C(O)O[C@H](CO)[C@@H](O)[C@@H]1O` (stereo partly drawn) [Chlorozotocin, reference compound], the “% Tumour weight inhibition” value in the data set on MAC 13 tumours turned out to be 59.2%. In data set [1], this molecule yielded a maximum tolerated dose (MTD) of 60 mg/kg. The figures for the Tumour growth delay with MAC 26 tumours (60 mg kg-1 ip) and in the data set on MAC 26 tumours (80 mg kg-1 ip) were 0 days and “Toxic”, respectively. The Survivors in the data set on MAC 26 tumours (60 mg kg-1 ip) was 9/9; in the data set with MAC 26 tumours (80 mg kg-1 ip), 3/9. Besides, the values for the Survival fraction in the data set on bone marrow (15 mg kg-1 ip) and with bone marrow (30 mg kg-1 ip) were 0.86 and 0.80, respectively. The T/C% with MAC 15A ascites tumour is on record as 288%.
